In series [1] the test system is SH-SY5Y neuroblastoma cells. Briefly: SH-SY5Y viability, MTS assay, 72 h. As to conditions: 0.1-100 µM. Format: cell-based, human. The source says: OC(=O)[C@H]1CNCC[C@@H]1S OC(=O)CCCCCCN1C=CN=C1
OC(=O)C1CCNCC1 N[C@]12C[C@H]1[C@@H](CC2)C(O)=O
OC(=O)C1=CCNCC1 N[C@H]1C[C@@H]1CC(O)=O
O[C@@H]1CNCC[C@H]1C(O)=O N[C@@H]1C[C@@H]1CC(O)=O
OC(=O)CCCC1=NC=CN1 N[C@H]1C[C@H]1CC(O)=O
OC(=O)\C=C\C1=NC=CN1 NC[C@H]1C[C@H]1C(O)=O
OC(=O)\C=C\C1=CNC=N1 NC[C@@H]1C[C@@H]1C(O)=O
OC(=O)\C=C\C1=CN=CN1 NC[C@@H]1C[C@H]1C(O)=O
OC(=O)CCC1=CNC=N1 NC[C@H]1C[C@@H]1C(O)=O
OC(=O)CCC1=CN=CN1 NC1=CC=C(C=N1)C(O)=O
OC(=O)CCN1C=CN=C1 NC1=NC=C(C=N1)C(O)=O
OC(=O)CCCC1=NC=CN1 NC(=N)N1CCC(CC1)C(O)=O
S2. IC50 determination at GAT3 stable GAT3-CHO, compound 9
Figure S1. IC 50 determination for compound 9. Data represent one of three independent experiments, each performed in three technical replicates.
S3. […]
The influence of compound 9 on viability of SH-SY5Y neuroblastoma cells was determined using Aqueous Non-Radioactive Cell Proliferation Assay. […] Upon adding MTS and following 2h incubation, cell viability was calculated and […]
The effect of compound 9 on viability and proliferation of SH-SY5Y was determined with CellTiter 96® Aqueous Non-Radioactive Cell Proliferation Assay (MTS, Promega, Madison, WI, USA). […] Next MTS was added in fresh medium and after 2h of incubation the absorbance was measured at 490 nm using a microplate reader EnSpire (PerkinElmer, Waltham, MA USA). All results were shown as mean ± SD calculated from two independent experiments. […]
In general terms: Tetrazolium dyes change colour on reduction, which living cells bring about.

Another series concerns the target T1, hBGT1 Q299L (Homo sapiens, UniProt P48065, Q299L).
T1 construct: HA; expressed in transfected cells; host or cells: tsA201 cells (transformed HEK293), transient expression
T1 sequence (P48065 1-614 Q299L): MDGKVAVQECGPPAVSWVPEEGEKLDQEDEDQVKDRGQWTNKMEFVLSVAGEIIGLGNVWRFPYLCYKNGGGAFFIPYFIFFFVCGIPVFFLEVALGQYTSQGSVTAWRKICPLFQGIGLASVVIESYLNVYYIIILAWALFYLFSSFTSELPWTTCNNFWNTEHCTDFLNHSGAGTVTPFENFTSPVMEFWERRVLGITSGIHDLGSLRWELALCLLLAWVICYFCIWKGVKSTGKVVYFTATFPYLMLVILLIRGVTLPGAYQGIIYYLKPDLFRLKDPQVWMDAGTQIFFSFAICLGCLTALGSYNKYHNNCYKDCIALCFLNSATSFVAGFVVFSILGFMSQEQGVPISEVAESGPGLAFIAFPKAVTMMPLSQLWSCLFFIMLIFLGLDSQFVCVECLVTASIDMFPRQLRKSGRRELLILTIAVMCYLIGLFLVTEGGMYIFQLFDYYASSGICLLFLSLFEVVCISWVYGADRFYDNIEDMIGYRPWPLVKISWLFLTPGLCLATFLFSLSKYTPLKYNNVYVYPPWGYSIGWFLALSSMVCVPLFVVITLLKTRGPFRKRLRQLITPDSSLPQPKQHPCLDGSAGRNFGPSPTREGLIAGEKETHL
Briefly: [3H]GABA uptake assay, hBGT1 mutant Q299L in tsA201 cells. Format: cell-based. The method, then:
To validate the molecular modeling, particularly the crucial interactions with the Glu52 and Gln299 residues, the activity of compound 9 was tested on the following hBGT1 mutants: E52A, E52Y, Q299L, and the double mutant E52A+Q299L (Figure 5 and Table 1).[14]
The CHO cells were placed in 96-well plates (approximately 50,000 cells/well) for about 24 h before the experiment. […] After incubation, cells were washed 3 times with 100 μL/well ice-cold assay buffer, 150 μL/well MicroScint20 (PerkinElmer) was subsequently added before the plate was shaken for at least 1 h. The radioactivity of each well of the plate was measured on a TopCount NXT scintillation counter. […] Data presented are the pooled data of at least three independent experiments with three technical replicates if not stated otherwise in figure legends. Concentration–response curves were fitted by nonlinear regression to the sigmoidal concentration–response model with GraphPad Prism v 9.0.
The tsA201 cell line (a transformed HEK293 cell line) has been described previously and was cultured accordingly.[20] The tsA201 cells used for transient expression of hBGT1 mutants were transfected with DNA constructs (8 μg per 10 cm plate) using 40 μL of PolyFect transfection reagent according to the manufacturer’s protocol (Qiagen). […]

What is called IC50 is the concentration needed to halve the response being measured. A lower IC50 goes with greater potency. As to `NC12CC(C(=O)O)(C1)C2` [Compound 9], the “impact on SH-SY5Y viability” value in series [1] was “no impact”. Further, the IC50 at hBGT1 Q299L came out at 73.5 µM. In addition, the “decrease in activity compared with wild type hBGT1” value at hBGT1 Q299L (Q299L vs wt) was “more than 2 fold”.

The values above are taken from publication PMC11587516 (ACS Chemical Neuroscience, 2024).
